Measurements as given in patent EP4592274A1, “RADIOLABELED TYROSINE DERIVATIVE AND APPLICATION THEREOF” (OSAKA UNIVERSITY, priority 2022, dated 2024).

What was measured:
[1] = test system: human pancreatic cancer cell line, PANC1; experiment: Imaging of mice subcutaneously transplanted with PANC1 (Test Example 2); settings: 2 hours after administration, 0.5 MBq per mouse via tail vein
Description: Immunodeficient mice (Balb/c-nu/nu, 5-week-old, male) were habituated for 1 week and then subcutaneously transplanted with a human pancreatic cancer cell line (PANC1, 1 × 10^7 cells/mouse). After the transplantation, the mice were observed over time until tumor reached a size large enough for imaging (about 1000 mm^3). […] Two hours after administration, the mice were anesthetized by isoflurane inhalation, and planar images were taken using a γ camera (E-cam, Siemens).

[2] = test system: CDDP-resistant A549 (A549 CDDP-r); experiment: Cytotoxicity test on CDDP-resistant A549 (Test Example 8); settings: cultivation for 48 hours
Method: Two days before experiment, A549 and CDDP-resistant A549 (A549 CDDP-r) were each seeded in a 96-well plate at a concentration of 1 × 10^5 cells/mL. ^211At-AAMT-OMe or ^211At-AAMT adjusted to a predetermined concentration was added to A549 cells and CDDP-resistant A549 cells, respectively, and the cells were cultured (CO2 5%, 37°C). After the cultivation for 48 hours, Cell counting kit-8 (DOJINDO LABORATORIES) was added. After the addition, the cells were cultured at 37°C for 1 hour, and cell viability was measured using absorbance at 450 nm as an indicator.

[3] = test system: human pancreatic cancer cell line, PANC1; experiment: Measurement of accumulated amounts of 211At-labeled compounds in tumors of PANC1 transplanted mice (Test Example 5); format: in vivo; settings: 0.1 MBq per mouse via tail vein
Method: Radiation doses before and after the administration were measured, and a difference between them was defined as an injected dose (ID). Ten minutes and one hour after administration, the mice were anesthetized by isoflurane inhalation, the tumors were isolated by autopsy in chronological order, and their radiation doses and weights were measured using a gamma counter (2480 Wizard^2, PerkinElmer) and a semimicro scale (Shimadzu Corporation, readability 10 µg), respectively. For comparison between accumulated amounts, accumulated amounts per unit amount (% ID/g) were calculated.

[4] = test system: CDDP-resistant A549 (A549 CDDP-r); experiment: Cell viability of CDDP-resistant A549 in the presence of CDDP (Test Example 7); format: cell-based, human; settings: A549 CDDP-r at 100 µg/mL CDDP
Method: Cisplatin (CDDP) was added to a human lung cancer cell line, A549 at an initial concentration of 1 µg/mL. After 3 days, dead cells were removed, and CDDP was again added. Cells that grew like A549 even in the presence of CDDP were isolated and maintained for 3 months while gradually increasing the concentration of CDDP in a culture medium.

A549 = experiment: Therapeutic test on mice subcutaneously transplanted with A549 (Test Example 9); format: in vivo; settings: A549, 30 days after administration, 0.5 MBq per mouse; compared with 211At-AAMT
Method: The mice were observed over time until engraftment of tumors was confirmed (50 to 100 mm^3), and when the tumors reached a predetermined size, ^211At-AAMT-OMe or ^211At-AAMT diluted with water for injection to 0.5 MBq/0.2 mL per mouse was administered via tail vein. Thirty days after administration, the mice were euthanized and tumor masses were isolated. After fat tissue and the like were trimmed off, the wet weights of the isolated tumor masses were measured to make a histogram.

[5] = test system: human pancreatic cancer cell line, PANC1; experiment: Therapeutic test on mice subcutaneously transplanted with PANC1 (Test Example 3); format: in vivo
Description: Twenty-eight days after administration, the mice were euthanized and subjected to autopsy, and tumor masses were isolated after organs were examined for abnormalities.

[6] = test system: human pancreatic cancer cell line, PANC1; settings: up to 21 days after administration, 1 MBq per mouse
Method: Tumor sizes and body weights were measured over time after the administration. The experiment was terminated 21 days after administration. It should be noted that in Fig. 21 and Fig. 22, "OMe" is ^211At-AAMT-OMe and "OEt" is ^211At-AAMT-OEt.

[7] = Thin-layer chromatography (TLC) analysis of decomposition after production; format: physicochemical; settings: 24 hours after purification; in sodium ascorbate aqueous solution (final concentration 1%)
Method: The crude product solution (1 µL) was analyzed by thin-layer chromatography (TLC). The sample was spotted on a thin-layer plate (silica gel 60F254), and a mixed solvent of acetonitrile/water (2/1) was used as a developing solvent. The thin-layer plate was exposed to an imaging plate (BAS IP MS 2025E, GE Healthcare) for about 15 min, and then analyzed by a bioimage analyzer (Tyhoon™ FLA-7000, Cytiva). The results are shown in Fig.2. ^211At-AAMT-OMe in the crude product solution was detected at Rf 0.80, and the radiochemical yield (RCY) was 81.3%.
Before purification, immediately after production, 3 hours after production, and 24 hours after production, ^211At-AAMT-OMe was analyzed by thin-layer chromatography (TLC) in the same manner as described above.
24 hours after production, (R)-^211At-AAMT-OMe was analyzed by thin-layer chromatography (TLC) in the same manner as described above.
24 hours after production, ^211At-AAMT-OEt was analyzed by thin-layer chromatography (TLC) in the same manner as described above.
24 hours after production, ^211At-AAMT-OPr was analyzed by thin-layer chromatography (TLC) in the same manner as described above.
24 hours after production, ^211At-AAMPhe-OMe was analyzed by thin-layer chromatography (TLC) in the same manner as described above.

PANC1 = experiment: Cellular uptake test (using PANC1); format: cell-based, human; settings: compared to 211At-AAMT; for uptake speed: PANC1 cells
Method: • Cells to be used: PANC1 • Culture medium to be used: D-MEM (containing 10% FBS, 1% P/S)
Two days before a test day, a cell suspension was prepared in such a manner that the concentration of predetermined cells was 1 x 10^5 cells/mL in the same manner as in Test Example 1. The cell suspension was seeded in a 24-well multiculture plate at a volume of 0.5 mL per well. On the day of the test, cultures were confirmed to be subconfluent (which refers to a state where 70-80% of the well is covered in density). The cells were washed twice with warmed PBS(-) Buffer (166-23555, FUJIFILM Wako Pure Chemical Corporation), the culture medium was replaced with HBSS(-) Buffer (085-09355, FUJIFILM Wako Pure Chemical Corporation), and the plate was left to stand in an incubator (MINIcell-35, WakenBtech Co., Ltd) until an RI addition test.
^211At-AAMT-OMe, ^211At-AAMT-OEt, ^211At-AAMT-OPr, or ^211At-AAMT was added to the prepared cells at 10 µL/well. BCH (LAT1 inhibitor, 20 mM) or unlabeled AMT (α-methyl tyrosine, […]) was previously (15 minutes before) added (10 µg/mL). The cells were cultured (CO2 5%, 37°C), and after 30 minutes, the liquid was removed by suction using an aspirator. The cells were washed twice with PBS(-). The cells were lysed by adding 0.1N NaOH to obtain a lysate, and the radioactivity of the lysate was measured using a γ counter. After the radioactivity measurement, the lysate was loaded into a 96-well plate at a volume of 10 µL per well, the protein amount was measured by the BCA method, and the number of cells was corrected based on the protein amount. Absorbance was measured by MultiScanFC (Thermo Fisher). The uptake level of ^211At-AAMT-OMe, ^211At-AAMT-OEt, ^211-At-AAMT-OPr, or ^211At-AAMT into the cells (number of radioactivity counts/protein amount) was calculated.

HEK293-hLAT1 cells = molecular target: T1, HEK293-hLAT1 cells (Homo sapiens, UniProt Q01650); experiment: Cellular uptake test (using HEK293); format: cell-based
T1 construct: expressed in transfected cells; host or cells: HEK293
Method: • Cells to be used: HEK293-Mock, HEK293-hLAT1, HEK293-hLAT2 (HEK293: Human Embryonic Kidney cells 293) • Culture medium to be used: E-MEM (containing 10% FBS, 1% P/S, 1% NEAA)
Two days before a test day, a cell suspension was prepared in such a manner that the concentration of predetermined cells was 1 x 10^5 cells/mL. The cell suspension was seeded in a 24-well multiculture plate at a volume of 0.5 mL per well. On the day of the test, cultures were confirmed to be subconfluent (which refers to a state where 70-80% of the well is covered in density). […]
^211At-AAMT-OMe or ^211At-AAMT was added to the prepared cells at 10 µL/well. […] The cells were lysed by adding 0.1N NaOH to obtain a lysate, and the radioactivity of the lysate was measured using a γ counter. After the radioactivity measurement, the lysate was loaded into a 96-well plate at a volume of 10 µL per well, the protein amount was measured by the BCA method, and the number of cells was corrected based on the protein amount. Absorbance was measured by MultiScanFC (Thermo Fisher). The uptake level of ^211At-AAMT-OMe or ^211At-AAMT into the cells (number of radioactivity counts/protein amount) was calculated.

[8] = test system: Gem-resistant PANC1 (PANC1 Gem-r); settings: mouse, in vivo
Method: (§1) Thirty days after administration, the mice were euthanized and tumor masses were isolated. After fat tissue and the like were trimmed off, the wet weights of the isolated tumor masses were measured to make a histogram.

[9] = test system: CDDP-resistant A549 (A549 CDDP-r); settings: 30 days after administration, 0.5 MBq per mouse, compared with 211At-AAMT
Method: as §1

[10] = test system: gemcitabine-resistant human pancreatic cancer cell line, PANC1 (PANC1 Gem-r); experiment: Cell viability of gemcitabine-resistant PANC1 in the presence of gemcitabine (Test Example 11); format: cell-based; settings: PANC1 Gem-r at 30 µg/mL gemcitabine
Method: Gemcitabine (Gem) was added to a human pancreatic cancer cell line, PANC1 at an initial concentration of 100 ng/mL. After 3 days, dead cells were removed, and gemcitabine was again added. Cells that grew like a human pancreatic cancer cell line, PANC1 even in the presence of gemcitabine were isolated and maintained for 3 months while gradually increasing the concentration of gemcitabine in a culture medium.

[11] = 10 minutes after administration

T1 sequence (Q01650 whole entry): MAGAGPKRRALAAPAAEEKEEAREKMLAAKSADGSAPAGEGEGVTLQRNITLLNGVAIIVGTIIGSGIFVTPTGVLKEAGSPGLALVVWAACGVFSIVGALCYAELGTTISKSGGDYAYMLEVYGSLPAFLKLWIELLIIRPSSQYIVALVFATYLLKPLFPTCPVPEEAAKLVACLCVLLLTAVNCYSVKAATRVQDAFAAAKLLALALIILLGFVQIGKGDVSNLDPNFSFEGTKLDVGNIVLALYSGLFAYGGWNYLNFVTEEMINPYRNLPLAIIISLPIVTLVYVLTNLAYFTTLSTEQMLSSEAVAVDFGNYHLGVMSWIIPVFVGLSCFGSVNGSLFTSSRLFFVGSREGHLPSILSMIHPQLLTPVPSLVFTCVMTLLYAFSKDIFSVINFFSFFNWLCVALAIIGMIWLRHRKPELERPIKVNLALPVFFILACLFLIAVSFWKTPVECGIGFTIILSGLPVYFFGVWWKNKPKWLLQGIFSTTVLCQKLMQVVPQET
T1 sequence (P08195 102-630 partner): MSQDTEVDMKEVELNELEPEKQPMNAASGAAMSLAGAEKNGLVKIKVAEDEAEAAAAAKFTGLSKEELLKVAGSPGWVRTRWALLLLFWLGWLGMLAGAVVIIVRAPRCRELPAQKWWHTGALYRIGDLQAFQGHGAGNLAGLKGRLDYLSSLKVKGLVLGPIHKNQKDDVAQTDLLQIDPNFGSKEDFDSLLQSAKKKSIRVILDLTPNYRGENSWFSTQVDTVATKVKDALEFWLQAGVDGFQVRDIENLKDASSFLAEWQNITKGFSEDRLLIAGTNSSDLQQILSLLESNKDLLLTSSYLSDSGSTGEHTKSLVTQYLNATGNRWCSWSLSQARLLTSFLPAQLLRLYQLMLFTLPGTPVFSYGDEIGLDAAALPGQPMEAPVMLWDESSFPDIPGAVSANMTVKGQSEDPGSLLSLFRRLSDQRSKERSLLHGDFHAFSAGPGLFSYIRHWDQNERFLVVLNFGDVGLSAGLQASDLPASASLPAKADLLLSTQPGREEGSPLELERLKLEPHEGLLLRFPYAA

Row | SMILES | tumor accumulation [3, 11] [%ID/g] | tumor accumulation ([3]; 1 hour after administration) [%ID/g] | decomposition (TLC) [7] | uptake speed (PANC1) | uptake level into the cells (number of radioactivity counts/protein amount) (PANC1) | also measured
1 | C[C@](N)(Cc1ccc(O)c([At])c1)C(=O)O [^211At-AAMT, astato(^211At)-α-methyl-L-tyrosine, reference compound] | 0.29 | 2.49 | – | – | – | accumulation in the tumor (planar image, γ camera) [1]: accumulated in the tumor sites; cytotoxicity (cell viability, Cell counting kit-8) [2]: has cytotoxicity
2 | [NH2][Pt]([NH2])([Cl])[Cl] [CDDP, Cisplatin] | – | – | – | – | – | cell viability [4]: still alive
3 | COc1ccc(C[C@](C)(N)C(=O)O)cc1[211At] [^211At-AAMT-OMe, (S)-3-astato(^211At)-O-methyl-α-methyltyrosine] | 2.59 | 3.78 | no decomposition | much superior | much superior | anti-tumor effect (tumor weight) (A549): comparable; accumulation in the tumor (planar image, γ camera) [1]: accumulated in the tumor sites; cytotoxicity (cell viability, Cell counting kit-8) [2]: more remarkable cytotoxicity; tumor size (wet weight of isolated tumor masses) ([5]; 28 days after administration, 1 MBq per mouse via tail vein, compared with the 211At-AAMT administration group): slightly smaller; mouse body weight ([5]; immediately after administration to 28th day, 1 MBq per mouse, not at a level regarded as a side effect): tends to slightly reduce; apparent toxicity induced by administration [6]: not observed; body weight [6]: gently increased; uptake level into the cells (number of radioactivity counts/protein amount) (HEK293-hLAT1 cells; HEK293-hLAT1 cells (CTL), 30 minutes, comparable to 211At-AAMT): strongly taken up; uptake into the cells in the presence of inhibitor (HEK293-hLAT1 cells; HEK293-hLAT1 cells, in the presence of BCH and AMT): significantly inhibited; anti-tumor effect (tumor weight) [8]: higher; tumor growth inhibiting effect (tumor size) [8]: higher; anti-tumor effect (tumor weight) [9]: higher
4 | CCCOc1ccc(C[C@](C)(N)C(=O)O)cc1[At] [^211At-AAMT-OPr, (S)-3-astato(^211At)-O-propyl-α-methyltyrosine] | 5.91 | 9.45 | no decomposition | comparable or superior | comparable or superior | –
5 | COc1cc(C[C@](C)(N)C(=O)O)ccc1[At] [^211At-AAMPhe-OMe, (S)-α-methyl-4-astato(^211At)-3-methoxyphenylalanine] | 3.77 | 6.38 | no decomposition | – | – | –
6 | Nc1ccn([C@@H]2O[C@H](CO)[C@@H](O)C2(F)F)c(=O)n1 [gemcitabine, Gemcitabine] | – | – | – | – | – | cell viability [10]: still alive
7 | CCOc1ccc(C[C@](C)(N)C(=O)O)cc1[At] [^211At-AAMT-OEt, (S)-3-astato(^211At)-O-ethyl-α-methyltyrosine] | 4.21 | 3.59 | no decomposition | comparable or superior | comparable or superior | apparent toxicity induced by administration [6]: not observed; body weight [6]: gently increased; tumor growth inhibiting effect (tumor size) ([6]; compared with the 211At-AAMT-OMe administration group): comparable
8 | COc1ccc(C[C@@](C)(N)C(=O)O)cc1[At] [(R)-^211At-AAMT-OMe, (R)-3-astato(^211At)-O-methyl-α-methyltyrosine] | – | – | no decomposition | – | – | –
